Test results published in publication PMC5669199, “CM352 Reduces Brain Damage and Improves Functional Recovery in a Rat Model of Intracerebral Hemorrhage” (Journal of the American Heart Association: Cardiovascular …, 2017).

Key:
[1] = test system: collagenase‐induced mouse model of ICH; parameters: method as in PMID 15800021; details: 100 mg/kg intraperitoneally for 48 hours (not with 1 mg/kg); cited from earlier work
MMP‐10 = test system: MMP‐10; parameters: method as in PMID 25686022; details: previously reported; read-out: MMP Inhibitory Activity (IC50), MMP‐10; cited from earlier work
MMP‐7 = biological target: T1, MMP‐7 (Homo sapiens, UniProt P09237); assay: MMP enzyme activity assay; format: biochemical
T1 construct: GenScript (contract testing)
T1 sequence (P09237 95-267): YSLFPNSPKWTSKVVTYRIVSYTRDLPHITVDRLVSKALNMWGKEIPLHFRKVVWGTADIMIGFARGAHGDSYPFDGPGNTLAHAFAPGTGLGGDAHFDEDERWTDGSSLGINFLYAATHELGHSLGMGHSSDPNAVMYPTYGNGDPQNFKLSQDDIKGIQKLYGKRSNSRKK
Procedure: Protease stock solutions (10 mmol/L) were diluted with assay buffer to make final test solutions containing no more than 2.0% DMSO. The samples were dispensed into plates; substrate was added and read with PHERAstar PLUS (BMG Labtech, Ortenberg, Germany) plate reader.

MMP‐3 = test system: MMP‐3; parameters: method as in PMID 25686022; details: previously reported; read-out: MMP Inhibitory Activity (IC50), MMP‐3; cited from earlier work
MMP‐12 = biological target: T2, MMP‐12 (Homo sapiens, UniProt P39900); assay: MMP enzyme activity assay; format: biochemical; details: read-out: MMP Inhibitory Activity (IC50), MMP‐12
T2 construct: GenScript (contract testing)
T2 sequence (P39900 106-470, species assumed): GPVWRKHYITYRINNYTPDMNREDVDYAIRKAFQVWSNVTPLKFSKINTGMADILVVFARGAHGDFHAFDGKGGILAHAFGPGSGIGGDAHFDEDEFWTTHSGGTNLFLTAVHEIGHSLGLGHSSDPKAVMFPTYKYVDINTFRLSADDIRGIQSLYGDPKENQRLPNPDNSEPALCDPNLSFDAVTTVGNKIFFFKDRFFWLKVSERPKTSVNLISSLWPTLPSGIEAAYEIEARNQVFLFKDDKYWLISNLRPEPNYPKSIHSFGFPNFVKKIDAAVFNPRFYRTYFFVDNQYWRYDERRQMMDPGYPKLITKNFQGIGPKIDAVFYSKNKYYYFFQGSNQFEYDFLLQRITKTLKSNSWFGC
Procedure: […]. Protease stock solutions (10 mmol/L) were diluted with assay buffer to make final test solutions containing no more than 2.0% DMSO. The samples were dispensed into plates; substrate was added and read with PHERAstar PLUS (BMG Labtech, Ortenberg, Germany) plate reader.

[2] = test system: mouse model of warfarin‐associated ICH; parameters: method as in PMID 21127298; details: cited from earlier work

IC50 (MMP‐7) [nM]	IC50 (MMP‐12) [nM]	Structure (SMILES)	lesion volume and neurological outcome [1]	IC50 (MMP‐10) [nM]	IC50 (MMP‐3) [nM]	effect on edema [2]
9	1.2	CNC(=O)[C@H](Cc1c[nH]c2ccccc12)NC(=O)[C@@H](CC(=O)NO)CC(C)C [GM6001]	decrease in lesion volume and improved neurological outcome	[…]	20.7	–
–	–	NC[C@H]1CC[C@H](C(=O)O)CC1 [TXA, tranexamic acid]	–	–	–	exacerbates edema
